The values below come from patent publication US20260286288A1, “REGULATED CELLS EXPRESSING CYTOKINES” (William Marsh Rice University, priority 2023, published 2026).

As a reminder, the viability is a per cent measure of how many cells are alive, often set against a control.

In assay [1] the test system is IL2-ks cells (cells expressing IL-2 and an inducible kill switch). As to the kind of experiment: Bright field imaging of IL2-ks cells after AP1903. It is filed as cell-based. To be noted: 100 nM AP1903, 18 hours after administration. The text has this:
(§1) Images were acquired at 20× magnification.

The subject of assay [2] is Encapsulated IL2-ks cells. Put plainly: mIL-2 ELISA of capsule supernatant of encapsulated IL2-ks cells after AP1903. As to conditions: 10 nM, 100 nM or 1000 nM AP1903, alginate-encapsulated cells. It is filed as cell-based. As for the experimental part: FIG. 3A and FIG. 3B are graphs of mIL-2 concentration (pg/mL) over time of four alginate-encapsulated, cytokine-producing, kill switch-inducible cell populations exposed to 0 nM, 10 nM, 100 nM, and 1000 nM of small molecule kill switch inducer AP1903.
as §1
(An ELISA detects its analyte on a solid surface through an enzyme-linked reagent.)

In assay [3] the test system is RPE-mIL12-ks cells. Put plainly: cells. To be noted: 24 h, read-out: cell death.
Experimental: (§2) Images of RPE-mIL 12-ks cells via the microscope 24 hours after 0 nM (left) or 10 nM AP1903 (right) administration. […] Cell viability measured after lysing encapsulated RPE-IL12-ks via cell counter 24 hours post administration (n=3).
(§3) FIG. 9A is series of two annotated photographs of two populations of cytokine-producing, kill switch-inducible cells, the first population (left) not having been exposed to small molecule kill switch inducer AP1903, and the second population (right) 24 hours after exposure to 10 nM AP1903. FIG. 9B is the administration of different concentrations of CID (AP1903) in mIL 12 ks cells in a 24-well plate for 24 hours. […] FIG. 9C is the validation of AP1903 treatment in inducing encapsulated cell death in mice. The inventors implant 50 mIL12 ks capsules in each mouse and administrate half of the mice with AP1903 right after implantation surgeries. Euthanize all the mice after 24 hours, retrieve capsules and lysis capsules for measuring cell viability.
The subject of assay [4] is IL2-ks cells (cells expressing IL-2 and an inducible kill switch). As to the kind of experiment: IL-2 ELISA of IL2-ks cell supernatant after AP1903. It counts as cell-based. The method, then: FIG. 2 is a graph of mIL-2 concentration (pg/mL) of the two cell populations of FIG. 1, the first population (right) not having been exposed to AP1903 and the second population (left) less than 24 hours after exposure to 100 nM AP1903.
FIG. 7A and FIG. 7B are graphs of IL-2 concentration (pg/mL) over time of four alginate-encapsulated, cytokine-producing, kill switch-inducible cell populations exposed to 0 nM, 10 nM, 100 nM, and 1000 nM of small molecule kill switch inducer AP1903.
as §1

Assay [5] deals with RPE-mIL12-ks cells. To be noted: in vitro and in vivo assays of FIGS. 9A-C.
Experimental: as §2, §3
For assay [6], the system named is encapsulated IL12-ks cells. Put plainly: AP1903-induced encapsulated cell death of mIL12 ks capsules in mice. It counts as in vivo. The text has this:
FIG. 9A is an in vitro assay. […] FIG. 9B is an in vitro assay. […] FIG. 9C is an in vivo assay.

The subject of assay [7] is encapsulated IL2-ks cells. As to the kind of experiment: Viability of explanted IL2-ks capsules with or without intraperitoneal AP1903.

Entries after “also recorded” stand apart in the source; their conditions may differ.

Turning to `CC[C@H](C(=O)N1CCCC[C@H]1C(=O)O[C@H](CCc1ccc(OC)c(OC)c1)c1cccc(OCC(=O)NCCNC(=O)COc2cccc([C@@H](CCc3ccc(OC)c(OC)c3)OC(=O)[C@@H]3CCCCN3C(=O)[C@@H](CC)c3cc(OC)c(OC)c(OC)c3)c2)c1)c1cc(OC)c(OC)c(OC)c1` [AP1903], the “cell death (bright field images)” value in assay [1] is “induced cell death”. The “mIL-2 concentration over time from capsule supernatant” value in assay [2] was “IL-2 production was reduced; also recorded: decreased mIL-2 production”. For the same compound, in the assay on RPE-mIL12-ks cells [3], the cytotoxicity at 0.01 µM was 99%. Moreover, in assay [4] (10 nM, 100 nM or 1000 nM AP1903, 3 hours after administration), the “IL-2 concentration from cell supernatant” value is given as “significant reduction in cytokine production”. Besides, the “mIL-2 concentration from cell supernatant” value in assay [4] (100 nM AP1903, 18 hours after administration, n=3 wells) is listed as “significant reduction in cytokine production; also recorded: decreased mIL-2 production”. In addition, the “induction of cell death in RPE-mIL 12-ks cells” value in the assay on RPE-mIL12-ks cells [5] is reported as “highly effective at inducing cell death”. Further, the “time for encapsulated IL12-ks cells to respond to AP1903” value in assay [6] (0.4 mg/mL AP1903, healthy mice, n=3) is “less than 24 hours”. For the same compound, the “cell viability of retrieved capsules” value in assay [6] (AP1903 right after implantation of 50 capsules, 24 hours, compared to control mice) is “decreased cell viability”. The “time for encapsulated IL2-ks cells to respond to AP1903” value in assay [7] (0.4 mg/mL AP1903, healthy mice) is “less than 16 hours”. Further, the viability at 400 µg/mL in assay [7] (Mus musculus, ip, read-out: viability of explanted capsules (live)) was under 10%.
